Experimental data as given in article PMC12203697, “Bioactive constituents from the edible seaweed Halymenia hawaiiana (Rhodophyta)” (Pharmaceutical Biology, 2025).
Values after ≈ are worked out from the molar mass of the structure shown. Like-named read-outs stand apart in the source and are kept apart here. Blank lines part the entries; values can stand above or below the compound they belong to.

Legend:
[1] = tested on: MRSA HBP10; assay: Antibacterial MIC, broth microdilution with resazurin; type: cell-based, Staphylococcus aureus; settings: MRSA HBP10, Gram-positive
Source text: (§1) Methicillin-resistant Staphylococcus aureus (MRSA), methicillin-susceptible S. aureus (MSSA), and Gram-negative clinical isolates of bacteria [Escherichia coli (9637) and Serratia marcescens ATCC 13880] were used for this study. […] MSSA HBP10, MSSA LUU7, MSSA R113, S. aureus ONE9, and MSSA POB2 were isolated in Hawaiʻi (Gerken et al. [2021]). Mueller Hinton Broth (MHB, GTIN:00382902979630, Becton, Dickinson and Company, Franklin Lakes, NJ, USA) and Mueller Hinton Agar (MHA, GTIN:00382902252504, Becton, Dickinson and Company, Franklin Lakes, NJ, USA,) were used for bacterial inoculation. MRSA was a pathogen strain causing hospital-acquired infections in 1982. This strain easily acquires resistance to antibiotics, such as vancomycin. MSSA strains isolated from the Island of Hawaiʻi included: Honolʻii Beach Park (HBP10) carry the genes erm(C), aph(3′)-III, and mecA, which provide resistance to macrolide, aminoglycoside, and beta-lactam antibiotics, respectively; Wailuku River (LUU7) which contains the blaZ gene (beta-lactam resistance) (Gerken et al. [2021]). Richardson’s Beach Park (R113) and Onekahakaha (ONE9) which is known for its virulence factors (hlgA, hlgB, hlgC, lukD, and lukE).
(§2) The minimum inhibitory concentrations (MICs) were determined using a two-fold serial dilution method with MHB following the recommendations of the Clinical and Laboratory Standards Institute (CLSI [2012]; Elshikh et al. [2016]). In brief, serial two-fold dilutions of the samples in DMSO were mixed with MHB in a 96-well microplate. Then, 50 µL of bacteria suspension was added to each well, resulting in a final concentration of 1 × 10^4 colony-forming units/well. The plates were incubated at 35–37 °C for 18–24 hr. After incubation, 10 µL of 0.18% resazurin (Cat. No. R7017, Sigma-Aldrich, USA) was added to each well (Elshikh et al. [2016]). The MIC was assessed within 2–3 hr after the addition of resazurin. All antimicrobial assays were performed in triplicate, using vancomycin (Cat. No. SBR00001, Sigma-Aldrich, USA) and gentamicin (Cat. No. G1397, Sigma-Aldrich, USA) as standard controls.

[2] = tested on: MRSA POB2; assay: as above; type: cell-based, Staphylococcus aureus; settings: Staphylococcus aureus; MRSA POB2, Gram-positive; read-out: MIC
Source text: as §1, §2

[3] = tested on: S. aureus NEWMAN; assay: as above; type: cell-based, Staphylococcus aureus; settings: S. aureus NEWMAN, Gram-positive
Source text: as §1, §2

[4] = SRB cytotoxicity assay, NIH/3T3 cells; type: cell-based, murine; settings: mouse, NIH/3T3 fibroblasts (non-tumorigenic)
Source text: OD0 = Optical density of cells before treatment (baseline reading).

[5] = tested on: RAW 264.7 cells; assay: SRB cellular viability in RAW 264.7 cells; type: cell-based, mouse; settings: under the NO and ROS/RNS assay conditions
Method: The nitrite concentration in the culture medium was measured to indicate nitric oxide (NO) production as previously described (Min et al. [2009]). The murine macrophage RAW 264.7 cell line was obtained from ATCC, Manassas, VA, USA, and maintained in Dulbecco’s modified Eagle’s medium supplemented with 10% heat-inactivated FBS (Cat. No. A5670801, Gibco BRL Co, Grand Island, NY, USA), penicillin G (100 units/mL) (Cat. No. P7794, Sigma-Aldrich, USA), streptomycin (100 µg/mL) (Cat. No. S9137, Sigma-Aldrich, USA), and L-glutamine (2 mM) (Cat. No. 25030081, Gibco BRL Co, Grand Island, NY, USA). In brief, RAW 264.7 cells were seeded at a density of 4 × 10^4 cells/well in phenol red-free media (Cat. No. 11835030, Gibco, USA) in a 96-well plate, and incubated in a humidified incubator with 5% CO2 at 37 °C for 24 hr. Following this, the cells were treated with increasing concentrations of samples ranging from 10–50 μg/mL for 4 hr, after which the cells were treated with 1 μg/mL LPS for 20 h. L-N-Monomethyl Arginine citrate (L-NMMA) (Cat. No. NC0190932, Cayman Chemical, Michigan, USA), a non-selective inhibitor of NOS, was used as positive control. The concentration of nitric oxide production was assessed using the Griess reagent, which consists of a 1:1 (v/v) mixture of 1% sulfanilamide (Cat No. A13001, Alfa Aesar, Massachusetts, USA) in H3PO4 and N-(1-naphthyl)ethylenediamine dihydrochloride (Cat. No. 102397, MP Biomedicals, USA). Absorbance was recorded with a microplate reader (SynergyMx, BioTeK, Winooski, VT, USA) at 540 nm. A standard curve was created using sodium nitrite (1–100 μM) (Cat. No. 44227, Alfa Aesar, Massachusetts, USA). […]
To measure the formation of intracellular ROS and RNS, we utilized the fluorogenic dye 2′,7′-dichlorodihydrofluorescein diacetate (Cat. No. 4091-99-0, H2DCF-DA, Abcam, Boston, MA, USA). […] The relative fluorescent intensity of the cells was measured using a fluorescence plate reader (Synergy H1, BioTeK, Winooski, VT, USA) with excitation/emission at 485 nm/535 nm. […]

[6] = Staphylococcus aureus, read-out: MIC

- MIC [1, 6]: 128 µg/mL (≈ 563 µM)
- MIC [2]: 128 µg/mL (≈ 563 µM)
- MIC [3, 6]: 128 µg/mL (≈ 563 µM)
SMILES: Nc1ccn([C@H]2C[C@H](O)[C@@H](CO)O2)c(=O)n1 [Compound 1, deoxycytidine]

SMILES: CC(C)CCC[C@@H](C)[C@H]1CC[C@H]2[C@@H]3CC=C4C[C@@H](O)CC[C@]4(C)[C@H]3CC[C@]12C [Compound 9, cholesterol]
- IC50 at 72 h [4]: 181 ± 8.04 µM
- cytotoxicity in RAW 264.7 cells (in words) [5]: without inducing cytotoxicity
- MIC [1, 6]: 128 µg/mL (≈ 331 µM)
- MIC [2]: 128 µg/mL (≈ 331 µM)
- MIC [3, 6]: 64 µg/mL (≈ 166 µM)

SMILES: CC(C)CCC[C@@H](C)[C@H]1CCC2[C@@]34C=C[C@]5(C[C@@H](O)CC[C@]5(C)C3CC[C@@]21C)OO4 (stereo partly shown) [Compound 10, 7-dehydrochoresterol peroxide]
- IC50 at 72 h [4]: 96.6 ± 4.34 µM
- cytotoxicity in RAW 264.7 cells (in words) [5]: without inducing cytotoxicity
- MIC [1]: 32 µg/mL (≈ 76.8 µM)
- MIC [1, 6]: 32 µg/mL (≈ 76.8 µM)
- MIC [2]: 128 µg/mL (≈ 307 µM)
- MIC [3]: 8 µg/mL (≈ 19.2 µM)
- MIC [3, 6]: 8 µg/mL (≈ 19.2 µM)

SMILES: CC(C)CCC[C@@H](C)[C@H]1CCC2[C@]1(C)CC=C1[C@]23C=C[C@]2(C[C@@H](O)CC[C@]12C)OO3 (stereo partly drawn) [Compound 11, (3β-5α-8α)5,8-epidioxycholesta-6,9(1)-diene-3-ol]
- IC50 at 72 h [4]: 144 ± 6.15 µM
- cytotoxicity in RAW 264.7 cells (in words) [5]: without inducing cytotoxicity
- MIC [1]: 64 µg/mL (≈ 154 µM)
- MIC [1, 6]: 64 µg/mL (≈ 154 µM)
- MIC [2]: 128 µg/mL (≈ 309 µM)
- MIC [3]: 8 µg/mL (≈ 19.3 µM)
- MIC [3, 6]: 8 µg/mL (≈ 19.3 µM)
